From patent US4148795A, “Dithiocarbamate ester bactericides and fungicides” (American Cyanamid Company, priority 1976, dated 1979) come the findings set out here.

Several values for one entry are separate records, joined by “and”; a condition that tells them apart may be missing. Equal values may be shown once. Read-outs that look alike come from different tables or passages of the source.

For one experiment, the system named is Verticillium albo-atrum. Briefly: Agar dilution plate. The format is cell-based. The note with it: Va; 100 ppm, 72 hours at 23° C. On the procedure:
(§1) Test compounds were incorporated in a Sabouraud's dextrose agar in an amount sufficient to provide the active ingredient in a concentration of about 100 ppm. A twenty-ml. sample of the agar mixture is placed in a petri dish and permitted to solidify. An agar sample is inoculated with the test organism set forth below and then covered and incubated for a period of about 72 hours at 23° C. After incubation, growth observations are made. The test results are recorded and the test is repeated twice for the purpose of comparison.
(§2) The data obtained with a variety of test organisms is shown in the table below, and ratings are shown as 0 or 5. O indicates no control, 5 indicates 100% effectiveness of the test compound against the specified organism.
Va= Verticillium albo-atrum
(In general: In agar dilution, organisms are placed on agar that contains the substance at set levels.)

In a further experiment the test system is Piricularia oryzae. The format is in vivo. Details: scale not given here. Particulars: Rice Blast, five days.
Another experiment concerns Xanthomonas vesicatoria. The class given is cell-based. The note with it: 100 ppm; subcultures 72 hours at 37° C. Further: key: 0: No Effect; 9: Kill of Bacteria; 5: Stasis, but not Kill of all Bacteria.
In the next experiment the test system is Venturia inaequalis. Particulars: in vivo. Further: key: 5: clean, no disease; 4: trace of disease; 3: slight disease; 2: moderate disease; 1: severe disease; 0: like controls.
For the next experiment, the system named is Phytophthora infestans. The format is in vivo. Particulars: Tomato Late Blight, five days. Details: scale not given here.
A further experiment relates to Aerobacter aerogenes. The class given is cell-based. Particulars: 100 ppm; subcultures 72 hours at 37° C.
Experiment [1] has as its system Aspergillus niger. In words: Agar dilution plate. The format is cell-based. The note with it: An; 100 ppm, 72 hours at 23° C. As to the method: as §1, §2
Experiment [2] deals with Monilinia fructicola. Briefly: Agar dilution plate. The class given is cell-based. The note with it: Mf; 100 ppm, 72 hours at 23° C. As to the method: as §1, §2
Another experiment concerns Pythium de Baryanum. Briefly: Agar dilution plate. The format is cell-based. The note with it: Pd; 100 ppm, 72 hours at 23° C. On the procedure:
as §1, §2

In another experiment the test system is Rhizoctonia solani. In words: Agar dilution plate. Particulars: Rs; 100 ppm, 72 hours at 23° C. The class given is cell-based. As to the method: as §1, §2
The subject of a further experiment is Fusarium lycopersici. Briefly: Agar dilution plate. The format is cell-based. The note with it: Fl; 100 ppm, 72 hours at 23° C. On the procedure: as §1, §2
Experiment [3] relates to Stemphylium sarcinaeforme. Briefly: Agar dilution plate. The format is cell-based. The note with it: Ss; 100 ppm, 72 hours at 23° C. On the procedure:
as §1, §2
Ss= Stemphylium sarcinaeforme

In another experiment the test system is Pseudomonas solaracaerum. The format is cell-based.
The next experiment deals with Staphylococcus aureus. The class given is cell-based. Particulars: 100 ppm; subcultures 72 hours at 37° C.
In experiment [4] the test system is Collectotrichum lagenarium. In words: Agar dilution plate. The format is cell-based. The note with it: Cl; 100 ppm, 72 hours at 23° C. As to the method: as §1, §2
Cl= Collectotrichum lagenarium

In experiment [5] the test system is Stemphylium sarcinaeforme. Briefly: Spore germination inhibition. The format is cell-based. Particulars: Stemphylium sarciniforme; for inhibition at 100 ppm: 24 h, read-out: % Inhibition of Spore Germination; for inhibition at 1 ppm / inhibition at 10 ppm: 24 hours. The text has this: (§3) The test procedure involves the preparation of a 100, 10 or 1 ppm. suspension of test compound in water. The solutions are placed in one dram "opticlear" vials and separately inoculated with one drop of a spore suspension prepared from seven-day cultures of Aspergillus niger and 14-day old cultures of Monilinia fructicola and Stemphylium sarcinaeforme,all grown on potato-dextrose agar. The vials containing the separately inoculated solutions of test compounds are then capped and placed on a rotating tumbler for 24 hours to assure contact of the organism with the test compound. After 24 hours, the vials are removed and examined for inhibition of […].

The test system of experiment [6] is Aspergillus niger. In words: Spore germination inhibition. The class given is cell-based. Particulars: 24 hours.
From the text: as §3

Experiment [7] relates to Monilinia fructicola. In words: Spore germination inhibition. The class given is cell-based. The note with it: for inhibition at 1 ppm / inhibition at 10 ppm: 24 hours; for inhibition at 100 ppm: 24 h, read-out: % Inhibition of Spore Germination.
From the text: as §3
Wherever Antibacterial Activity rating is given: key: 0: No Effect; 9: Kill of Bacteria; 5: Stasis, but not Kill of all Bacteria.

As a reminder, the inhibition is the share of the control response that was lost under treatment. As to `CN(C)C(=S)SCC(CSC(=S)N(C)C)[N+](=O)[O-]` [Example 1, 2-Nitrotrimethylene Dimethyldithiocarbamate], the “Agar Dilution Plate rating” value with Verticillium albo-atrum is on record as 0; with Aspergillus niger [1] it was 0; with Monilinia fructicola [2], 5 (100% effectiveness of the test compound against the specified organism); in the experiment with Pythium de Baryanum, 0; with Rhizoctonia solani, 0; in the experiment with Fusarium lycopersici it was 0. For the same molecule, the “Agar Dilution Plate rating” value was 5 (100% effectiveness of the test compound against the specified organism) in experiment [3]; 0 in the experiment with Pseudomonas solaracaerum (100 ppm, 72 hours at 23° C); 5 (100% effectiveness of the test compound against the specified organism) in experiment [4]. In addition, the disease control index with Piricularia oryzae (150 ppm) is 2; with Piricularia oryzae (300 ppm), 2; in the experiment with Piricularia oryzae (600 ppm), 3; with Piricularia oryzae (1200 ppm), 3; in the experiment with Venturia inaequalis it was 3 and 0; in the experiment on Phytophthora infestans (150 ppm) it was 3. In addition, the disease control index in the experiment with Phytophthora infestans (300 ppm) came to 4; with Phytophthora infestans (600 ppm) it was 4; in the experiment with Phytophthora infestans (1200 ppm) it was 5. Moreover, the entries for the “Antibacterial Activity rating” value in the experiment on Xanthomonas vesicatoria, with Aerobacter aerogenes and in the experiment with Staphylococcus aureus were 0, 0 and 5, respectively. Further, the inhibition at 100 ppm (in experiment [5]; with Aspergillus niger [6]; with Monilinia fructicola [7]) was 100% each time. In addition, the inhibition at 1 ppm (in experiment [5]; in the experiment on Aspergillus niger [6]; in the experiment with Monilinia fructicola [7]) was 100% each time. The inhibition at 10 ppm (in [5]; in the experiment on Aspergillus niger [6]; in the experiment on Monilinia fructicola [7]) was 100% each time.
Take `CC(=O)C(CSC(=S)N(C)C)SC(=S)N(C)C` (stereo not drawn) [Example 10, Acetylethylene Dimethyldithiocarbamate]: the “Agar Dilution Plate rating” value in the experiment on Verticillium albo-atrum, with Aspergillus niger [1], with Monilinia fructicola [2], in the experiment with Pythium de Baryanum, with Rhizoctonia solani and with Fusarium lycopersici was 5 (100% effectiveness of the test compound against the specified organism) in each case. Also, the results for the “Agar Dilution Plate rating” value (in experiment [3]; in the experiment with Pseudomonas solaracaerum; in experiment [4]) were 5 (100% effectiveness of the test compound against the specified organism), 0 and 5 (100% effectiveness of the test compound against the specified organism), respectively. Also, the disease control index in the experiment with Piricularia oryzae (at 75 ppm) amounted to 4; with Piricularia oryzae (at 500 ppm) it was 5; in the experiment with Phytophthora infestans (at 100 ppm), 4; with Phytophthora infestans (at 500 ppm) it was 5. For the same molecule, the “Antibacterial Activity rating” value turned out to be 5 with Xanthomonas vesicatoria, 9 in the experiment on Aerobacter aerogenes and 9 in the experiment with Staphylococcus aureus. Besides, the inhibition at 100 ppm (in experiment [5]; in the experiment on Aspergillus niger [6]; in the experiment with Monilinia fructicola [7]) was 100% each time. The inhibition at 1 ppm (in experiment [5]; in the experiment on Aspergillus niger [6]; with Monilinia fructicola [7]) was 100% throughout. In addition, the inhibition at 10 ppm (in experiment [5]; in the experiment with Aspergillus niger [6]; with Monilinia fructicola [7]) was 100% each time.
As for `CN(C)C(=S)SCC(SC(=S)N(C)C)C(=O)c1ccccc1` (stereo not drawn) [Example 11], the “Agar Dilution Plate rating” value in the experiment with Verticillium albo-atrum is 0; with Aspergillus niger [1], 0; with Monilinia fructicola [2], 5 (100% effectiveness of the test compound against the specified organism); in the experiment on Pythium de Baryanum, 0; in the experiment on Rhizoctonia solani, 0; in the experiment on Fusarium lycopersici, 0. For the same molecule, the “Agar Dilution Plate rating” value is on record as 0 in experiment [3]; 0 in the experiment on Pseudomonas solaracaerum (100 ppm, 72 hours at 23° C); 5 (100% effectiveness of the test compound against the specified organism) in experiment [4]. In addition, the disease control index was 3 in the experiment on Piricularia oryzae (at 75 ppm); 4 with Piricularia oryzae (at 500 ppm); 5 with Venturia inaequalis; 3 with Phytophthora infestans (at 100 ppm); 4 in the experiment with Phytophthora infestans (at 500 ppm). The “Antibacterial Activity rating” value came to 0 with Xanthomonas vesicatoria, 0 in the experiment on Aerobacter aerogenes and 5 with Staphylococcus aureus.
Turning to `CN(C)C(=S)SC(C[N+](=O)[O-])c1ccc(Cl)cc1Cl` (stereo not drawn) [Example 17, 2,4-Dichloro-α-(nitromethyl)benzyl Dimethyldithiocarbamate], the “Agar Dilution Plate rating” value is on record as 5 (100% effectiveness of the test compound against the specified organism) in the experiment on Verticillium albo-atrum; 0 with Aspergillus niger [1]; 0 with Monilinia fructicola [2]; 0 in the experiment on Pythium de Baryanum; 0 in the experiment with Rhizoctonia solani; 0 in the experiment on Fusarium lycopersici. The “Agar Dilution Plate rating” value is recorded as 0 in [3]; 0 with Pseudomonas solaracaerum (100 ppm, 72 hours at 23° C); 5 (100% effectiveness of the test compound against the specified organism) in experiment [4]. Also, the disease control index was 3 in the experiment with Piricularia oryzae (150 ppm); 5 in the experiment with Piricularia oryzae (300 ppm); 5 in the experiment with Piricularia oryzae (600 ppm); 5 in the experiment on Piricularia oryzae (1200 ppm); 5 and 0 with Venturia inaequalis; 0 in the experiment with Phytophthora infestans (150 ppm). For the same molecule, the disease control index in the experiment on Phytophthora infestans (300 ppm) is reported as 4; with Phytophthora infestans (600 ppm), 5; in the experiment with Phytophthora infestans (1200 ppm) it was 5. For the same molecule, the entries for the “Antibacterial Activity rating” value in the experiment with Xanthomonas vesicatoria, in the experiment with Aerobacter aerogenes and with Staphylococcus aureus were 0, 0 and 5, respectively.
Regarding `CC(C)c1ccc(C(C[N+](=O)[O-])SC(=S)N(C)C)cc1` (stereo not drawn) [Example 26, p-Isopropyl-α-(nitromethyl)benzyl Dimethyldithiocarbamate], the “Agar Dilution Plate rating” value is 5 (100% effectiveness of the test compound against the specified organism) with Verticillium albo-atrum; 0 in the experiment on Aspergillus niger [1]; 5 (100% effectiveness of the test compound against the specified organism) with Monilinia fructicola [2]; 5 (100% effectiveness of the test compound against the specified organism) with Pythium de Baryanum; 5 (100% effectiveness of the test compound against the specified organism) in the experiment on Rhizoctonia solani; 0 in the experiment with Fusarium lycopersici. Further, the “Agar Dilution Plate rating” value in [3] is listed as 5 (100% effectiveness of the test compound against the specified organism); in the experiment with Pseudomonas solaracaerum (100 ppm, 72 hours at 23° C), 0; in experiment [4], 5 (100% effectiveness of the test compound against the specified organism). The disease control index with Piricularia oryzae (150 ppm) was 4; in the experiment with Piricularia oryzae (300 ppm), 4; with Piricularia oryzae (600 ppm), 5; in the experiment on Piricularia oryzae (1200 ppm) it was 5; in the experiment with Venturia inaequalis, 5 and 0; with Phytophthora infestans (150 ppm), 3. The values for the disease control index with Phytophthora infestans (300 ppm), in the experiment on Phytophthora infestans (600 ppm) and in the experiment with Phytophthora infestans (1200 ppm) were 4, 4 and 5, respectively. For the same molecule, the results for the “Antibacterial Activity rating” value in the experiment on Xanthomonas vesicatoria, in the experiment with Aerobacter aerogenes and with Staphylococcus aureus were 0, 0 and 5, respectively.
